Assay results published in patent US12605376B2, “Methods of treating relapsing multiple sclerosis using an inhibitor of Bruton's tyrosine kinase” (Genentech, Inc., priority 2020, dated 2026).
Where two headings read alike, the source gives them in different places. Marks after values point to notes of the source that are not given here.

Key:
[1] = system: basophils (CD63); details: basophil activation, human whole blood, literature values, cited from earlier work
[2] = system: panel of over 200 human kinases; test: Kinase selectivity screen in a panel of over 200 human kinases; type: biochemical; details: for # off-target kinases >50% INH/# total kinases tested @ 1 μM: unpublished
[3] = system: cells of myeloid progenitor lineage (basophils); test: Inhibition of myeloid lineage progenitor cell activation (FcR signaling, basophils); type: cell-based; details: (±SEM)
[4] = system: B cells (CD69); details: B cell activation, human whole blood, literature values, cited from earlier work
[5] = system: B cells; test: Inhibition of B cell activation (B-cell receptor signalling); type: cell-based; details: (±SEM)
[6] = system: panel of over 200 human kinases; details: Crawford, et al., cited from earlier work
[7] = Safety analysis of previous fenebrutinib clinical trials in RA, SLE and CSU
[8] = without specific elimination procedures; cited from earlier work
[9] = patients with autoimmune conditions

C=CC(=O)N1CCC(CNc2ncnc(N)c2-c2ccc(Oc3ccccc3)cc2)CC1 [Evobrutinib]
IC50 [1]: 1660 nM | off-target kinases inhibited by >50% / kinases tested at 10 μM ([2]; 10 μM): 18/218 | EC50 [3]: 171 nM | EC90 [3]: 3100 nM | IC50 [4]: 84 nM | EC50 [5]: 161 nM | EC90 [5]: 524 nM | # off-target kinases >50% INH/# total kinases tested @ 1 μM ([6]; J Med Chem 2018, listed as EVO): 3/221 | # off-target kinases >50% INH/# total kinases tested @ 1 μM ([6]; J Med Chem 2018): 3/221 ^a

C[C@H]1CN(C2COC2)CCN1c1ccc(Nc2cc(-c3ccnc(N4CCn5c(cc6c5CC(C)(C)C6)C4=O)c3CO)cn(C)c2=O)nc1 [Fenebrutinib, (S)-2-(3′-(hydroxymethyl)-1-methyl-5-((5-(2-methyl-4-(oxetan-3-yl)piperazin-1-yl)pyridin-2-yl)amino)-6-oxo-1,6-dihydro-[3,4′-bipyridin]-2′-yl)-7,7-dimethyl-2,3,4,6,7,8-hexahydro-1H-cyclopenta[4,5]pyrrolo[1,2-a]pyrazin-1-one]
IC50 [1]: 30.7 nM | IC50 ([1]; listed as FEN): 31 nM | Headache, investigator-reported events ([7]; 200 mg twice daily, n = 299): 16 (5.4%) patients (%) | Nasopharyngitis, investigator-reported events ([7]; 200 mg twice daily, n = 299): 18 (6.0%) patients (%) | Nausea, investigator-reported events ([7]; 200 mg twice daily, n = 299): 17 (5.7%) patients (%) | Number of patients with AE leading to treatment withdrawal ([7]; 200 mg twice daily, n = 299): 32 (10.7%) patients (%) | Number of patients with Serious AE ([7]; 200 mg twice daily, n = 299): 18 (6.0%) patients (%) | Number of patients with Serious AE related to blinded fenebrutinib ([7]; 200 mg twice daily, n = 299): 6 (2.0%) patients (%) | Number of patients with Study withdrawal due to AE ([7]; 200 mg twice daily, n = 299): 17 (5.7%) patients (%) | Total adverse events (AEs) ([7]; 200 mg twice daily, n = 299, RA/SLE/CSU trials): 507 | Number of patients with Fatal AE ([7]; 200 mg twice daily, n = 299, death deemed unrelated to fenebrutinib): 1 (0.3%) patients (%) | Percent of patients with infection adverse events ([7]; CSU, 200 mg, n = 52, median follow-up 56 days): 32.7% (n = 52) | Percent of patients with infection adverse events ([7]; RA cohort 1, 200 mg, n = 110, median follow-up 84 days): 10.9% (n = 110) | Percent of patients with infection adverse events ([7]; RA cohort 2, 200 mg, n = 49, median follow-up 84 days): 6.1% (n = 49) | Percent of patients with infection adverse events ([7]; SLE, 200 mg, n = 88, median follow-up 336 days): 46.6% (n = 88) | infection rates in fenebrutinib arms compared to placebo ([7]; background immunosuppressant therapy in RA and SLE): no imbalance of infection rates | patients with serious infections ([7]; combined fenebrutinib arms): 2.0% | bleeding or bruising, patients ([7]; fenebrutinib arms): 7.7% | Hy's law cases [7, 9]: no Hy's law cases | risk causally associated with fenebrutinib (liver aminotransferase elevations) [7, 9]: Asymptomatic and reversible liver aminotransferase elevations were the only risk causally associated with fenebrutinib | atrial fibrillations, flutters, or other supraventricular tachyarrhythmias ([7]; randomized clinical trial patients): No fenebrutinib randomized clinical trial patients had atrial fibrillations, flutters, or other supraventricular tachyarrhythmias | EC50 [3]: 15 nM | EC90 [3]: 62 nM | IC50 [4]: 8.4 nM | IC50 ([4]; listed as FEN): 8 nM | EC50 [5]: 8 nM | EC90 [5]: 65 nM | # off-target kinases >50% INH/# total kinases tested @ 1 μM ([6]; J Med Chem 2018, listed as FEN): 3/286 | # off-target kinases >50% INH/# total kinases tested @ 1 μM ([6]; J Med Chem 2018): 2/286 ^a

C=CC(=O)N1CCC[C@@H](n2c(=O)n(-c3ccc(Oc4ccccc4)cc3)c3c(N)nccc32)C1 [Tolebrutinib]
IC50 [1]: 166 nM | # off-target kinases >50% INH/# total kinases tested @ 1 μM [2]: 19/218 ^d | # off-target kinases >50% INH/# total kinases tested @ 1 μM ([2]; listed as TOL): 19/218 | EC50 [3]: 80 nM | EC90 [3]: 281 nM | IC50 [4]: 10 nM | EC50 [5]: 26 nM | EC90 [5]: 84 nM

C/C(O)=C(\C#N)C(=O)Nc1ccc(C(F)(F)F)cc1 [teriflunomide]
time to lower plasma teriflunomide concentrations to 0.02 mg/L [8]: up to 2 years
